The target in test [1] is T1, human CH24H (Homo sapiens, UniProt Q9Y6A2).
T1 construct: Using Full-Length Mammalian Gene Collection No. 4819975 (Invitrogen) as a template; made in house; host or cells: FreeStyle 293-F cells, transient transfection with pcDNA3.1(+)/hCH24H; lysate supernatant, not purified
Nature of the test: Measurement of CH24H inhibitory activity (24-HC produced from [14C] cholesterol by human CH24H lysate). Format: biochemical. The following applies: 1 μM test compound, [14C] cholesterol 15 μM, 37° C. for 5 hr, read-out: Inhibitory Rate in 1 μM (%). An outline of the steps: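 Human CH24H lysate from FreeStyle 293 cells was incubated with compound and 15 μM [14C]cholesterol in 50 mM potassium phosphate pH 7.4 with 0.1% BSA, for 5 h at 37 °C. The 24-HC formed was extracted, separated by silica TLC and quantified by radioactivity. % inhibition was calculated versus no-compound reactions.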

For test [2], the system named is 24-HC in the brain. The test can be described thus: Quantification test of 24-HC in mouse brain after repeated oral administration. To be noted: 30 mg/kg orally once a day for 3 days, female C57BL/6N mice, brain 24-HC at 16 hours after the third administration, relative to control group, read-out: Decreasing Rate in 30 mg/kg (%). Format: in vivo. As to the method: Animals used were 6-week-old female C57BL/6N mice (3 mice/group). A test compound was suspended in a 0.5% aqueous methylcellulose [133-14255 WAKO] solution (1 mg/mL). The body weight of the mice was measured, and the solution was forcibly administered orally and repeatedly once a day for 3 days. At 16 hours after the third administration, half of the brain was harvested, and the amount of 24-HC was measured.
The wet weight of the brain was measured, and the brain was homogenized with 4-fold amount of saline. This solution was used as a brain extract. The 24-HC in the brain extract was extracted with an acetonitrile solution (98% acetonitrile, 1.98% methanol, 0.02% formic acid), and quantified by HPLC. The average value of 24-HC amount was calculated and the results are shown in relative values with the control group as 100%.

T1 sequence (Q9Y6A2 whole entry): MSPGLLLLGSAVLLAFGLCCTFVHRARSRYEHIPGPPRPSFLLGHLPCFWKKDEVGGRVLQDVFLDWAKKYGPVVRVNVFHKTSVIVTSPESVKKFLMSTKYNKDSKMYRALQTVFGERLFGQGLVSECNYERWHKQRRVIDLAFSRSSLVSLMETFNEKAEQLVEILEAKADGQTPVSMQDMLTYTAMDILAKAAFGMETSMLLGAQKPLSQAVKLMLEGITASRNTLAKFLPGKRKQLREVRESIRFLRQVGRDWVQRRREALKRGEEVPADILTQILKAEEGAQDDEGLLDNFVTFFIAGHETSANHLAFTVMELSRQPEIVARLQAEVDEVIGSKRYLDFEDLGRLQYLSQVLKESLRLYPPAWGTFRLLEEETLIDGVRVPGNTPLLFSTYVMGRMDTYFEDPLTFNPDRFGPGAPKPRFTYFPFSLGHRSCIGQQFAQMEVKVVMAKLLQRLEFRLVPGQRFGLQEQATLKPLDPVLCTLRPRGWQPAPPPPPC

`Cc1cnc(-c2ccncc2N2CCC(C(=O)N3CCC[C@@H]3C#N)CC2)s1` [Example 129, (2R)-1-((1-(4-(5-methyl-1,3-thiazol-2-yl)pyridin-3-yl)piperidin-4-yl)carbonyl)pyrrolidine-2-carbonitrile]: the inhibition at 1 µM in test [1] turned out to be 82%. Further, in test [2], the inhibition in vivo at 30 mg/kg worked out at 44%. Consider `N#C[C@H]1CCCN1C(=O)C1CCN(c2cnccc2-c2ccccn2)CC1` [Example 142, (2R)-1-((1-(2,4′-bipyridine-3′-yl)piperidin-4-yl)carbonyl)pyrrolidine-2-carbonitrile], for which the inhibition at 1 µM in test [1] came to 93%. For the same molecule, in test [2], the inhibition in vivo at 30 mg/kg was found to be 69%. For `Cc1nnc(-c2ccncc2N2CCC(C(=O)N3CC(F)(F)C[C@@H]3C#N)CC2)s1` [Example 132, (2R)-4,4-difluoro-1-((1-(4-(5-methyl-1,3,4-thiadiazol-2-yl)pyridin-3-yl)piperidin-4-yl)carbonyl)pyrrolidine-2-carbonitrile], in that order: 87% and 65%. For `Cc1cnn(-c2ccncc2N2CCC(C(=O)N3CC(F)(F)C[C@@H]3C#N)CC2)c1` [Example 130, (2R)-4,4-difluoro-1-((1-(4-(4-methyl-1H-pyrazol-1-yl)pyridin-3-yl)piperidin-4-yl)carbonyl)pyrrolidine-2-carbonitrile], in that order: 93% and 54%.

Consider `Cc1cnn(-c2ccncc2N2CCC(C(=O)N3CCC[C@]3(C)C#N)CC2)c1` [Example 127, (2R)-2-methyl-1-((1-(4-(4-methyl-1H-pyrazol-1-yl)pyridin-3-yl)piperidin-4-yl)carbonyl)pyrrolidine-2-carbonitrile], for which the inhibition at 1 µM in test [1] was determined as 79%. Besides, in test [2], the inhibition in vivo at 30 mg/kg was 44%. For `N#C[C@H]1CCCN1C(=O)C1CCN(c2cnccc2-n2cc(Cl)cn2)CC1` [Example 33, (2R)-1-((1-(4-(4-chloro-1H-pyrazol-1-yl)pyridin-3-yl)piperidin-4-yl)carbonyl)pyrrolidine-2-carbonitrile], in that order: 96% and 49%.

For the molecule `COC[C@H]1CCCN1C(=O)C1CCN(c2cnccc2-c2nnc(C)s2)CC1` [Example 133, ((2R)-2-(methoxymethyl)pyrrolidin-1-yl)(1-(4-(5-methyl-1,3,4-thiadiazol-2-yl)pyridin-3-yl)piperidin-4-yl)methanone], the inhibition at 1 µM in test [1] was 87%. Besides, the inhibition in vivo at 30 mg/kg in test [2] was 70%. Consider `Cc1cnn(-c2ccncc2N2CCC(C(=O)N3CCC[C@@H]3C(N)=O)CC2)c1` [Example 124, 1-((1-(4-(4-methyl-1H-pyrazol-1-yl)pyridin-3-yl)piperidin-4-yl)carbonyl)-D-prolinamide], for which the inhibition at 1 µM in test [1] was 81%. Also, the inhibition in vivo at 30 mg/kg in test [2] turned out to be 59%. Consider `Cc1cnc(-c2ccncc2N2CCC(C(=O)N3CC[C@H](F)C3)CC2)s1` [Example 316, ((3S)-3-fluoropyrrolidin-1-yl)(1-(4-(5-methyl-1,3-thiazol-2-yl)pyridin-3-yl)piperidin-4-yl)methanone], for which, in test [1], the inhibition at 1 µM was found to be 94%.

The values are drawn from US9643957B2, “Heterocyclic compounds having cholesterol 24-hydroxylase activity” (TAKEDA PHARMACEUTICAL COMPANY LIMITED, priority 2012, dated 2017).
